# Data from ChEMBL document CHEMBL2390918, “Cinnamides as selective small-molecule inhibitors of a cellular model of breast cancer stem cells” (Bioorg Med Chem Lett, 2013).
# Experiments:
# Rattus norvegicus [1] = species: Rattus norvegicus; assay: Displacement of [125I]omega-Conotoxin GVIA from N-type calcium channel in Wistar rat frontal brain at 10 uM after 30 mins relative to control
# [2] = Displacement of [125I]omega-Conotoxin GVIA from N-type calcium channel in Wistar rat frontal brain after 30 mins
# [3] = molecular target: Platelet-activating factor receptor (Homo sapiens) (UniProt P25105); assay: Displacement of [3H]PAF from platelet activating factor receptor in human platelets at 10 uM after 3 hrs relative to control
# Chain of Platelet-activating factor receptor (Homo sapiens) (P25105 whole entry): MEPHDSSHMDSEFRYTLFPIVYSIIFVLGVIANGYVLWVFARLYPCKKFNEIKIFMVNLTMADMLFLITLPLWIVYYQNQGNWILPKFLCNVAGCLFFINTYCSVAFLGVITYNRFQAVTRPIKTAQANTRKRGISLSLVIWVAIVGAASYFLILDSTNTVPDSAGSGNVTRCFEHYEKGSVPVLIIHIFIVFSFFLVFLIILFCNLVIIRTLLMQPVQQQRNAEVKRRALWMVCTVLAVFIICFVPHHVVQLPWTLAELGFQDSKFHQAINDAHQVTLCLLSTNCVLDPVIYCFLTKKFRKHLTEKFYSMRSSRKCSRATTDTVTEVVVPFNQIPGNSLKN
# Glutamate NMDA receptor = assay: Displacement of [3H]MDL105519 from NMDA receptor glycine binding site in Wistar rat cerebral cortex after 30 mins; type: tissue-based
# [4] = molecular target: T1, Glutamate NMDA receptor (Rattus norvegicus) (UniProt P35439+Q00959+Q00960+Q00961+Q62645+Q8VHN2+Q9R1M7); assay: Displacement of [3H]MDL105519 from NMDA receptor glycine binding site in Wistar rat cerebral cortex at 10 uM after 30 mins relative to control; type: tissue-based
# IMR-32 = assay: Displacement of [I125]Epibatidine from nAChR in human IMR32 cells at 10 uM after 60 mins relative to control; type: cell-based
# [5] = molecular target: Neuropeptide Y receptor type 2 (Homo sapiens) (UniProt P49146); assay: Displacement of [125I]Peptide-YY from neuropeptide Y receptor type 2 in human KAN-TS cells at 10 uM after 2 hrs relative to control; type: cell-based
# Chain of Neuropeptide Y receptor type 2 (Homo sapiens) (P49146 whole entry): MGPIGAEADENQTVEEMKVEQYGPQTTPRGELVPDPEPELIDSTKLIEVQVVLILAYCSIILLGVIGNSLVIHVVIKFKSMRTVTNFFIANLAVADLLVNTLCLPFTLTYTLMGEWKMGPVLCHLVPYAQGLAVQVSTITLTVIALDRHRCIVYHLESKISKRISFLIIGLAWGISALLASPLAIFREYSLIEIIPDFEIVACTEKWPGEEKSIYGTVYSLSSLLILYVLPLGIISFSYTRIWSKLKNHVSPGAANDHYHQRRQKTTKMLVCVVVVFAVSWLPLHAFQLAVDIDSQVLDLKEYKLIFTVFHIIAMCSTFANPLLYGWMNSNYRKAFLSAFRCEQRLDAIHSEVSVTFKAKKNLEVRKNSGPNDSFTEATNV
# [6] = molecular target: Neuropeptide Y receptor type 2 (Homo sapiens, UniProt P49146); assay: Displacement of [125I]Peptide YY from neuropeptide Y receptor type 2 in human KAN-TS cells after 2 hrs; type: cell-based
# Chain of Neuropeptide Y receptor type 2 (P49146 whole entry): as above
# [7] = Displacement of [3H]Idazoxan from central-type imidazole receptor 2 imidazoline binding site in Wistar rat cerebral cortex after 30 mins; type: tissue-based
# Rattus norvegicus [8] = species: Rattus norvegicus; assay: Displacement of [3H]Idazoxan from central-type imidazole receptor 2 imidazoline binding site in Wistar rat cerebral cortex at 10 uM after 30 mins relative to control; type: tissue-based
# [9] = molecular target: Delta-type opioid receptor (Homo sapiens) (UniProt P41143); details: HEK293, 10 uM
# Chain of Delta-type opioid receptor (Homo sapiens) (P41143 whole entry): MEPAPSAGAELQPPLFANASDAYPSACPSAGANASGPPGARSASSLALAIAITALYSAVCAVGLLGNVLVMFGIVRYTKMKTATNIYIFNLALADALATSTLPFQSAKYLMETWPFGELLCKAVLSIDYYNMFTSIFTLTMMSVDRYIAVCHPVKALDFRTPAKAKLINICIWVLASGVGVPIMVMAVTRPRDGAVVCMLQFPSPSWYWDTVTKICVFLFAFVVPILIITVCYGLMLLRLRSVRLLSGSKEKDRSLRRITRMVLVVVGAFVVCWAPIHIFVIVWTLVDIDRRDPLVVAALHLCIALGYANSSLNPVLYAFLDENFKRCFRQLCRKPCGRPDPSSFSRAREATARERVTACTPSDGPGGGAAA
# [10] = molecular target: Histamine H2 receptor (Homo sapiens) (UniProt P25021); assay: Displacement of [125I]Aminopotentidine from human recombinant histamine H2 receptor expressed in CHOK1 cells at 10 uM after 2 hrs relative to control; type: cell-based; details: CHO-K1
# Chain of Histamine H2 receptor (Homo sapiens) (P25021 whole entry): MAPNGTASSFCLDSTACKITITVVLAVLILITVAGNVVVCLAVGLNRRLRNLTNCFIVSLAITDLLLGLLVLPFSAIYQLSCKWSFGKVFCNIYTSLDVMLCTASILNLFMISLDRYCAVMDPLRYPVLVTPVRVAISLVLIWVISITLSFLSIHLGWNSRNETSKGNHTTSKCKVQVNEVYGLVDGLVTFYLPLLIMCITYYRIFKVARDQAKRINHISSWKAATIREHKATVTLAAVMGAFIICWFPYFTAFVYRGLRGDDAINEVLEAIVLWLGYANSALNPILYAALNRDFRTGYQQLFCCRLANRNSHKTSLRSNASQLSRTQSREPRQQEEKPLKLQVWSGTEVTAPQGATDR
# [11] = molecular target: Muscarinic acetylcholine receptor M1 (Homo sapiens) (UniProt P11229); assay: Displacement of [3H]N-methylscopolamine from human recombinant muscarinic M1 receptor expressed in CHOK1 cells at 10 uM after 2 hrs relative to control; type: cell-based; details: CHO-K1
# Chain of Muscarinic acetylcholine receptor M1 (Homo sapiens) (P11229 whole entry): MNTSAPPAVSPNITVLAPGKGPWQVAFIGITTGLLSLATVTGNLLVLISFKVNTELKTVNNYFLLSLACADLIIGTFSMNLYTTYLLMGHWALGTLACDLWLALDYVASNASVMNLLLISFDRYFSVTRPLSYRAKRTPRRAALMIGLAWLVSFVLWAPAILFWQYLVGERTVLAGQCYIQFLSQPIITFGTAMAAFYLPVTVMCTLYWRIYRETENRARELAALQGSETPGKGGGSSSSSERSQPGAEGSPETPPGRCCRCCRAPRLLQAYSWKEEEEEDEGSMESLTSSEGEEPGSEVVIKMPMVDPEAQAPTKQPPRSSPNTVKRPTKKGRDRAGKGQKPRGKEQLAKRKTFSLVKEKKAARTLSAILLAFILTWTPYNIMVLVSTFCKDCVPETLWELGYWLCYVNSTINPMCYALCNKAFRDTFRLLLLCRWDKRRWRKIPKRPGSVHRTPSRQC
# [12] = molecular target: Muscarinic acetylcholine receptor M3 (Homo sapiens) (UniProt P20309); details: CHO-K1, 10 uM
# Chain of Muscarinic acetylcholine receptor M3 (Homo sapiens) (P20309 whole entry, looked up): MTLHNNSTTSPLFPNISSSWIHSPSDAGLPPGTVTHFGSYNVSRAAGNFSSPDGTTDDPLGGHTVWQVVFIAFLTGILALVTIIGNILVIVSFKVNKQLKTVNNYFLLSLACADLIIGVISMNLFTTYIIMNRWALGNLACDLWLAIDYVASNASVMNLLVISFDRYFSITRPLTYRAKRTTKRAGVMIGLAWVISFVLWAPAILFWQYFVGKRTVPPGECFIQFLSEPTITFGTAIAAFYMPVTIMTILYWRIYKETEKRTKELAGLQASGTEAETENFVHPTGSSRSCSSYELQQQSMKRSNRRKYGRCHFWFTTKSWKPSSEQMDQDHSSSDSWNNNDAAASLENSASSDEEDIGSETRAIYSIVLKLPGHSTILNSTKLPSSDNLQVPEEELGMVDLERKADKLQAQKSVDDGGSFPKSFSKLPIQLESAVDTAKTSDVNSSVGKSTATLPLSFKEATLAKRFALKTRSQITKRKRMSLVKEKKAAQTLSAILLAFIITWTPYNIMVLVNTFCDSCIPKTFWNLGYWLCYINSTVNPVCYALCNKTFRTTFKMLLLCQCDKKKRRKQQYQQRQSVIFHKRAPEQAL
# [13] = molecular target: Muscarinic acetylcholine receptor M1 (Homo sapiens, UniProt P11229); assay: Displacement of [3H]N-methylscopolamine from human recombinant muscarinic M1 receptor expressed in CHOK1 cells after 2 hrs; type: cell-based, CHO-K1
# Chain of Muscarinic acetylcholine receptor M1 (P11229 whole entry): as the sequence (P11229 whole entry) above
# [14] = molecular target: Muscarinic acetylcholine receptor M2 (Homo sapiens) (UniProt P08172); details: CHO-K1, 10 uM
# [15] = molecular target: B1 bradykinin receptor (Homo sapiens) (UniProt P46663); assay: Displacement of [3H](Des-Arg10)-Kallidin from bradykinin B1 receptor in human IMR90 cells at 10 uM after 60 mins relative to control; type: cell-based; details: IMR-90
# Mus musculus = species: Mus musculus; assay: Displacement of [3H]PDBu from phorbol ester receptor in ICR mouse brain at 10 uM after 60 mins relative to control
# [16] = Displacement of [3H]PDBu from phorbol ester receptor in ICR mouse brain after 60 mins
# [17] = molecular target: Gamma-aminobutyric acid type B receptor subunit 1 (Homo sapiens) (UniProt Q9UBS5); assay: Displacement of [3H]CGP54626 from human recombinant GABAB1A receptor expressed in CHO cells at 10 uM after 3 hrs relative to control; type: cell-based
# Chain of Gamma-aminobutyric acid type B receptor subunit 1 (Homo sapiens) (Q9UBS5 whole entry): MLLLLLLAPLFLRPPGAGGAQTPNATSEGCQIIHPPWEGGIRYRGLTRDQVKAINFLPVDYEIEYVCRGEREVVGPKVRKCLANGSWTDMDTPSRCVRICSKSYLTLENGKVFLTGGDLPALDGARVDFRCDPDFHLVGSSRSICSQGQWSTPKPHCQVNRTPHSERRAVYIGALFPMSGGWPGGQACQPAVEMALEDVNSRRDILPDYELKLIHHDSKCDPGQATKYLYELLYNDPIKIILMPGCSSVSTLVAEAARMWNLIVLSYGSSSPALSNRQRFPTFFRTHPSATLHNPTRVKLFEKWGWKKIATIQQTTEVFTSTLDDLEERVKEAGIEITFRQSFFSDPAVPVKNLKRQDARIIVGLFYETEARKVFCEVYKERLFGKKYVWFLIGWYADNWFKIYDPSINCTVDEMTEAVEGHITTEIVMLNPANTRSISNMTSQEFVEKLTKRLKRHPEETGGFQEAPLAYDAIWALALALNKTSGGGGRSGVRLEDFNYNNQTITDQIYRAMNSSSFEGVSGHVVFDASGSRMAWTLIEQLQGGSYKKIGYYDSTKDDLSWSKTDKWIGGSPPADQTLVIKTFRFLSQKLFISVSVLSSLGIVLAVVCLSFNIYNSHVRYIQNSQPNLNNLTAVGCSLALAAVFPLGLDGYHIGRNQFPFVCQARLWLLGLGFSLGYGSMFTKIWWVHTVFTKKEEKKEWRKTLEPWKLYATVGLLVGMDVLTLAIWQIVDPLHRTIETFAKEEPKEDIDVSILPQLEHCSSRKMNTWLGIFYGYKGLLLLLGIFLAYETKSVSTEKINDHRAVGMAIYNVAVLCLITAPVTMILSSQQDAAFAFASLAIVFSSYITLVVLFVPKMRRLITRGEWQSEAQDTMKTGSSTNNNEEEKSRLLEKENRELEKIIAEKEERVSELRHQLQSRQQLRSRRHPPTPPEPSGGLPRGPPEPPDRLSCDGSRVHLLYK
# [18] = molecular target: B2 bradykinin receptor (Homo sapiens) (UniProt P30411); details: CHEM1, 10 uM
# Chain of B2 bradykinin receptor (Homo sapiens) (P30411 whole entry): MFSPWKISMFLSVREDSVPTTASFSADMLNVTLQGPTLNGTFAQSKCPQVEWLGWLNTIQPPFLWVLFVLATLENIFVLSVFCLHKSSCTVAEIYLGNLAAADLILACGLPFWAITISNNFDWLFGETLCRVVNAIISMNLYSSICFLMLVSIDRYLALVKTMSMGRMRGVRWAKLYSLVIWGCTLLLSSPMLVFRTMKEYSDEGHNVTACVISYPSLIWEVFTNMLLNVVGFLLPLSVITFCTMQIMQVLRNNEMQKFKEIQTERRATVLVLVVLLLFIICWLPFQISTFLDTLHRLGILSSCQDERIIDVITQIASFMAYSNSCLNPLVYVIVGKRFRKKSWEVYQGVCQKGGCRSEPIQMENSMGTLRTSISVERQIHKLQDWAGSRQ
# [19] = molecular target: Cysteinyl leukotriene receptor 1 (Homo sapiens) (UniProt Q9Y271); details: CHO-K1, 10 uM
# [20] = molecular target: T1, Glutamate NMDA receptor (Rattus norvegicus); details: Wistar, Cerebral cortex, 10 uM
# [21] = Displacement of [3H]alpha, beta-methylene-ATP from purinergic P2X receptor in New Zealand albino rabbit urinary bladder after 30 mins; parameters: species or system Oryctolagus cuniculus
# Oryctolagus cuniculus = species: Oryctolagus cuniculus; assay: Displacement of [3H]alpha, beta-methylene-ATP from purinergic P2X receptor in New Zealand albino rabbit urinary bladder at 10 uM after 30 mins relative to control
# [22] = Cytotoxicity against human CSC-like HMLE cells expressing shRNA and epithelial cadherin after 70 to 74 hrs by Cell Titer Glo assay; type: functional, cell-based
# [23] = Chemical stability of the compound after 48 hrs in presence of GSH; type: physicochemical; details: read-out: Stability
# [24] = Solubility in PBS at 100 uM after 24 hrs at pH 7.4 by UPLC-MS analysis; type: physicochemical
# [25] = Plasma protein binding in human; type: ADME, cell-free; details: read-out: PPB (converted)
# [26] = Cytotoxicity against human HMLE cells expressing shRNA and GFP after 70 to 74 hrs by Cell Titer Glo assay; type: cell-based
# [27] = Chemical stability of the compound in PBS after 48 hrs at pH 7.4 by UPLC/MS analysis; type: physicochemical; details: read-out: Stability
# [28] = Metabolic stability in human plasma after 5 hrs; type: ADME, cell-free; details: read-out: Stability
# [29] = Selectivity ratio of EC50 for human HMLE cells expressing shRNA and GFP to EC50 for human CSC-like HMLE cells expressing shRNA and epithelial cadherin; type: ADME, cell-based; details: read-out: Ratio EC50
# [30] = Chemical stability in DMSO after 48 hrs; type: physicochemical; details: read-out: Stability
# Rattus norvegicus [31] = species: Rattus norvegicus; assay: Displacement of [3H]Kainic acid from kainate receptor in Wistar rat brain at 10 uM after 60 mins relative to control
# [32] = molecular target: T1, Glutamate NMDA receptor (Rattus norvegicus); details: Wistar, Cerebral cortex, 10 uM; remark: listed apart in the source
# [33] = molecular target: D(4) dopamine receptor (Homo sapiens) (UniProt P21917); details: CHO-K1, 10 uM
# [34] = molecular target: D(2) dopamine receptor (Homo sapiens) (UniProt P14416); details: CHO, 10 uM
# Rattus norvegicus [35] = species: Rattus norvegicus; assay: Displacement of [3H]Rolipram from rolipram binding site in Wistar rat brain at 10 uM after 60 mins relative to control
# CHO-K1 = assay: Displacement of [125I]2-iodomelatonin from human recombinant melatonin receptor 1 expressed in CHOK1 cells at 10 uM after 3 hrs relative to control; type: cell-based
# [36] = molecular target: Adenosine receptor A1 (Homo sapiens) (UniProt P30542); details: CHO, 10 uM
# Rattus norvegicus [37] = species: Rattus norvegicus; assay: Displacement of [3H]Nitrendipine from L-type calcium channel dihydropyridine binding site in Wistar rat cerebral cortex at 10 uM after 90 mins relative to control; type: tissue-based
# [38] = Displacement of [3H]Nitrendipine from L-type calcium channel dihydropyridine binding site in Wistar rat cerebral cortex after 90 mins; type: tissue-based
# [39] = Displacement of [3H]Glyburide from ATP-sensitive potassium channel in hamster pancreatic HIT-T15 cells after 2 hrs; type: cell-based, Mesocricetus auratus
# HIT-T15 = assay: Displacement of [3H]Glyburide from ATP-sensitive potassium channel in hamster pancreatic HIT-T15 cells at 10 uM after 2 hrs relative to control; type: cell-based; details: Mesocricetus auratus
# [40] = molecular target: Mu-type opioid receptor (Homo sapiens) (UniProt P35372); details: CHO-K1, 10 uM
# Chain of Mu-type opioid receptor (Homo sapiens) (P35372 whole entry): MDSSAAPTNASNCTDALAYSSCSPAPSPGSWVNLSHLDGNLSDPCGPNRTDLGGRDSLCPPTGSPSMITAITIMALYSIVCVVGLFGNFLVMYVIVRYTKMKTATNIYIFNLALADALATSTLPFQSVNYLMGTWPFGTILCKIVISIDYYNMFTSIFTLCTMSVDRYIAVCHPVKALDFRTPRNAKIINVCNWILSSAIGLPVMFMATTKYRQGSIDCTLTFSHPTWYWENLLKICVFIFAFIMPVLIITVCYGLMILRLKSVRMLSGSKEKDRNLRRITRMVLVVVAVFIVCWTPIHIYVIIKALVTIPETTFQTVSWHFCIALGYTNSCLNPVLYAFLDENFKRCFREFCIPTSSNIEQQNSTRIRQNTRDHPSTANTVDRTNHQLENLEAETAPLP
# [41] = molecular target: Prostaglandin E2 receptor EP4 subtype (Homo sapiens) (UniProt P35408); assay: Displacement of [3H]PGE2 from human recombinant prostanoid EP4 receptor in CHEM1 cells at 10 uM after 2 hrs relative to control; type: cell-based
# Chain of Prostaglandin E2 receptor EP4 subtype (Homo sapiens) (P35408 whole entry): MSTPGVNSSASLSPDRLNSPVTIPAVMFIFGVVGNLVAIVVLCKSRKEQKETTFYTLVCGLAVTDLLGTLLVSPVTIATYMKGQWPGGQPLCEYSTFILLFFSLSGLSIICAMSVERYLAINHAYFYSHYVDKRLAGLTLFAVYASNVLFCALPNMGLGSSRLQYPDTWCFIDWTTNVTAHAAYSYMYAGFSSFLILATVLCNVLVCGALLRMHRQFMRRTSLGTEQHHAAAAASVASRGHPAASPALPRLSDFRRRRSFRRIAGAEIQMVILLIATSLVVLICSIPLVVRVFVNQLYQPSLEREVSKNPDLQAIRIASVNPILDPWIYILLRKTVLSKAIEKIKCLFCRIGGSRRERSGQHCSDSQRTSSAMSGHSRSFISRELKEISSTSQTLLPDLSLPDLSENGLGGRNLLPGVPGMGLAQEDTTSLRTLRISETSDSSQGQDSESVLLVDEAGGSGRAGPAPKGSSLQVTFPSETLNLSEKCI
# [42] = molecular target: Adenosine receptor A3 (Homo sapiens) (UniProt P0DMS8); details: CHO-K1, 10 uM
# [43] = molecular target: Histamine H3 receptor (Homo sapiens) (UniProt Q9Y5N1); details: CHO-K1, 10 uM
compound,measurement,setting,value
C[C@@H](O)[C@@H]1NC(=O)[C@H](Cc2ccc(O)cc2)NC(=O)[C@@H]2C[C@@H](O)CN2C(=O)[C@H](CC(N)=O)NC(=O)[C@@H]2CSSC[C@@H]3NC(=O)[C@H](CO)NC(=O)[C@H](CO)NC(=O)CNC(=O)[C@@H]4C[C@@H](O)CN4C(=O)[C@H](CO)NC(=O)[C@H](CCCCN)NC(=O)[C@@H](N)CSSC[C@H](NC(=O)[C@H](CSSC[C@@H](C(=O)N[C@@H](Cc4ccc(O)cc4)C(N)=O)NC(=O)[C@H](CCCNC(=N)N)NC(=O)[C@H](CCCCN)NC1=O)NC(=O)[C@H](CC(N)=O)NC(=O)[C@H](Cc1ccc(O)cc1)NC(=O)[C@H](CO)NC(=O)[C@H]([C@@H](C)O)NC(=O)[C@@H]1C[C@@H](O)CN1C(=O)[C@H](CO)NC3=O)C(=O)N[C@@H](CCCNC(=N)N)C(=O)N[C@@H](CO)C(=O)N2,inhibition,Rattus norvegicus [1],14%
same,IC50,[2],0.034 nM
same,Ki,[2],0.028 nM
CCCCCCCCCCCCCCCCOC[C@H](COP(=O)([O-])OCC[N+](C)(C)C)OC(C)=O,inhibition,[3],6%
O=C(O)/C(=C/c1c(C(=O)O)[nH]c2cc(Cl)cc(Cl)c12)c1ccccc1,IC50,Glutamate NMDA receptor,22 nM
same,Ki,Glutamate NMDA receptor,21 nM
same,inhibition,[4],-3%
Clc1ccc(C2CC3CCC2N3)cn1 (configuration not stated),inhibition,IMR-32,12%
H-PAEDLARYYSALRHYITRRQRY-NH2,inhibition,[5],6%
same,IC50,[6],0.21 nM
same,Ki,[6],0.12 nM
c1ccc2c(c1)OCC(C1=NCCN1)O2 (configuration not stated) [IDAZOXAN],IC50,[7],12 nM
same,Ki,[7],8 nM
same,inhibition,Rattus norvegicus [8],11%
Oc1ccc2c3c1O[C@H]1c4[nH]c5ccccc5c4C[C@@]4(O)[C@@H](C2)N(CC2CC2)CC[C@]314,inhibition,[9],18%
C/N=C(/NC#N)NCCSCc1csc(NC(=N)N)n1,inhibition,[10],11%
C[N+]1(C)CCC(OC(=O)C(c2ccccc2)c2ccccc2)CC1 [4-DAMP],inhibition,[11],5%
same,inhibition,[12],-4%
same,IC50,[13],4.5 nM
same,inhibition,[14],-2%
NCCCC[C@H](N)C(=O)N[C@@H](CCCN=C(N)N)C(=O)N1CCC[C@H]1C(=O)N1CCC[C@H]1C(=O)NCC(=O)N[C@@H](Cc1ccccc1)C(=O)N[C@@H](CO)C(=O)N1CCC[C@H]1C(=O)N[C@@H](Cc1ccccc1)C(=O)O,inhibition,[15],8%
CCCCCCCCCCCCCC(=O)O[C@@H]1[C@@H](C)[C@@]2(O)[C@@H](C=C(CO)C[C@]3(O)C(=O)C(C)=C[C@@H]23)[C@@H]2C(C)(C)[C@]12OC(C)=O [PHORBOL MYRISTATE ACETATE],inhibition,Mus musculus,-1%
same,IC50,[16],0.79 nM
same,Ki,[16],0.59 nM
C[C@H](NC[C@H](O)CP(=O)(O)CC1CCCCC1)c1ccc(Cl)c(Cl)c1,inhibition,[17],1%
H-RPPGFSPFR-OH,inhibition,[18],4%
CCCCC/C=C\C\C=C/C=C/C=C/[C@@H](SC[C@H](N)C(=O)NCC(=O)O)[C@@H](O)CCCC(=O)O,inhibition,[19],-10%
C[C@@]12NC(Cc3ccccc31)c1ccccc12,inhibition,[20],1%
Nc1ncnc2c1ncn2[C@@H]1O[C@H](COP(=O)(O)CP(=O)(O)OP(=O)(O)O)[C@@H](O)[C@H]1O [DIPHOSPHOMETHYLPHOSPHONIC ACID ADENOSYL ESTER],IC50,[21],82 nM
same,Ki,[21],18 nM
same,inhibition,Oryctolagus cuniculus,3%
CCc1ccc(/C=C/C(=O)NC2=NCCS2)cc1,EC50,[22],2000 nM
same,remaining at 48 h,[23],82%
same,"solubility at 24 h, 100 µM",[24],11.5 µM
same,fraction unbound,[25],0.034
same,EC50,[26],64000 nM
same,remaining at 48 h,[27],75%
same,remaining at 5 h,[28],97.1%
same,selectivity ratio,[29],32
same,remaining at 48 h,[30],> 75%
N[C@@H](CCC(=O)O)C(=O)O,inhibition,Rattus norvegicus [31],0%
same,inhibition,[32],10%
O=C(CCCN1CCC2(CC1)C(=O)NCN2c1ccccc1)c1ccc(F)cc1,inhibition,[33],-3%
same,inhibition,[34],-3%
COc1ccc(C2CNC(=O)C2)cc1OC1CCCC1 (configuration not stated),inhibition,Rattus norvegicus [35],16%
COc1ccc2[nH]cc(CCNC(C)=O)c2c1,inhibition,CHO-K1,11%
C[C@H](Cc1ccccc1)Nc1ncnc2c1ncn2[C@@H]1O[C@H](CO)[C@@H](O)[C@H]1O,inhibition,[36],25%
CCOC(=O)C1=C(C)NC(C)=C(C(=O)OC)C1c1cccc([N+](=O)[O-])c1 (configuration not stated) [NITRENDIPINE],inhibition,Rattus norvegicus [37],-6%
same,IC50,[38],0.72 nM
same,Ki,[38],0.46 nM
COc1ccc(Cl)cc1C(=O)NCCc1ccc(S(=O)(=O)NC(=O)NC2CCCCC2)cc1 [GLYBURIDE],IC50,[39],5.7 nM
same,Ki,[39],0.65 nM
same,inhibition,HIT-T15,10%
C[C@@H](NC(=O)[C@@H](N)Cc1ccc(O)cc1)C(=O)NCC(=O)N(C)[C@@H](Cc1ccccc1)C(=O)NCCO,inhibition,[40],4%
CCCCC[C@H](O)/C=C/[C@H]1[C@H](O)CC(=O)[C@@H]1C/C=C\CCCC(=O)O,inhibition,[41],5%
CNC(=O)[C@H]1O[C@@H](n2cnc3c(NCc4cccc(I)c4)ncnc32)[C@H](O)[C@@H]1O,inhibition,[42],22%
C[C@@H](N)Cc1c[nH]cn1,inhibition,[43],6%
